According to patent publication US8470786B2, “Pyrroloquinolinyl-pyrrolidine-2,5-dione compositions and methods for preparing and using same” (ArQule, Inc., priority 2010, dated 2013):

Tests used:
HT29 = test: Cell proliferation analysis (MTS assay); type: cell-based; settings: Homo sapiens, HT-29, HT29 cells, treated for 72 hours, read-out: Antiproliferative activity (HT29 MTS GI50)
Method: Cell survival was determined by the MTS assay. Briefly, cells were plated in a 96-well plate at 2,000-10,000 cells per well, cultured for 24 hours in complete growth medium, and then treated with various drugs and drug combinations for 72 hours. MTS was added and incubated for 4 hour, followed by assessment of cell viability using the microplate reader at 570 nm. Data were normalized to untreated controls and analyzed.

c-Met = c-Met (Homo sapiens, UniProt P08581); test: c-Met autophosphorylation inhibition assay (biochemical); settings: method per J. Biol. Chem. 286(23), 20666-20676
Sequence of c-Met (P08581 25-1390): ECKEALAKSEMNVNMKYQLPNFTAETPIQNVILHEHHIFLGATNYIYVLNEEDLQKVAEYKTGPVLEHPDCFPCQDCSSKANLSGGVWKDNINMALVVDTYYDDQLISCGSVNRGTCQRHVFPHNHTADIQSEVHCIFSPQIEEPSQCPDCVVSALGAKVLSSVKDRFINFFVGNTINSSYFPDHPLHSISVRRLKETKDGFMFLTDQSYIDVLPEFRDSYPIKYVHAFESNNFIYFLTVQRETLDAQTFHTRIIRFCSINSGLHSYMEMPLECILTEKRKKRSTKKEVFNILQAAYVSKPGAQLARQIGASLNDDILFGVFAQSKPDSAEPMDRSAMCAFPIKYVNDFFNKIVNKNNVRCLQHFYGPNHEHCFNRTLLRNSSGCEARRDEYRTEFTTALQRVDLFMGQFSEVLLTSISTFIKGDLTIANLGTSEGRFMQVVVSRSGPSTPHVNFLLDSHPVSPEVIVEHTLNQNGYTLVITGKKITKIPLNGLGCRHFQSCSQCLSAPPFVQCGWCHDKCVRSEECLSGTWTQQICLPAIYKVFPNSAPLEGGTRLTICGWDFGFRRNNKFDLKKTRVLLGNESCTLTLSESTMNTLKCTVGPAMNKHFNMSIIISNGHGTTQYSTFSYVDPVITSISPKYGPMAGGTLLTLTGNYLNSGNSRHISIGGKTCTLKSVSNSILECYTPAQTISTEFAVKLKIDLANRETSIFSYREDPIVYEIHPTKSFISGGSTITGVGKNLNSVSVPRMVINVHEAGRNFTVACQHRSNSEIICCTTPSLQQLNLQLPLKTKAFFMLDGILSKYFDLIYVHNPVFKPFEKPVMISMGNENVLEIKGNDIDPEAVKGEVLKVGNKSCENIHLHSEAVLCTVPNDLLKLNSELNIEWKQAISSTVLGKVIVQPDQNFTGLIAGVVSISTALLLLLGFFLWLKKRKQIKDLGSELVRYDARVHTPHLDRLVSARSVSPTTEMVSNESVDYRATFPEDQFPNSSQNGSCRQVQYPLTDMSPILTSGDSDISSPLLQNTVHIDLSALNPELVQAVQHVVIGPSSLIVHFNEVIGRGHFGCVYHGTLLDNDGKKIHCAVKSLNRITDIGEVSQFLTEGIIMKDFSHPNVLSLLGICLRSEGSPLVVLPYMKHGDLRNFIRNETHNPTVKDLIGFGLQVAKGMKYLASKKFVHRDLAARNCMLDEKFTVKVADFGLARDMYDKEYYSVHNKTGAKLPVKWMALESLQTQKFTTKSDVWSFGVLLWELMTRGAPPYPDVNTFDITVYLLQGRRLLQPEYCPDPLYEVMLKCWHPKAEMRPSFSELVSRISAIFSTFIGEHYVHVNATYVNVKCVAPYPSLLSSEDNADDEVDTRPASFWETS
Method: c-Met Autophosphorylation Inhibition assay was carried out according to Journal of Biological Chemistry 286(23), 20666-20676 (Jun. 10, 2010).

SMILES | GI50 (HT29) [µM] | IC50 (c-Met) [µM] | melting point [°C]
O=C1NC(=O)[C@H](c2cn3c4c(cccc24)[C@H](O)CC3)[C@H]1c1c[nH]c2ccccc12 [Compound 12, (3S,4S)-3-((R)-6-hydroxy-5,6-dihydro-4H-pyrrolo[3,2,1-ij]quinolin-1-yl)-4-(1H-indol-3-yl)pyrrolidine-2,5-dione] | 31 ± 7.1 | > 30 | 
O=C1NC(=O)[C@@H](c2cn3c4c(cccc24)[C@H](O)CC3)[C@@H]1c1c[nH]c2ccccc12 [Compound 11, (3R,4R)-3-((R)-6-hydroxy-5,6-dihydro-4H-pyrrolo[3,2,1-ij]quinolin-1-yl)-4-(1H-indol-3-yl)pyrrolidine-2,5-dione] | 3.7 ± 0.42 | 2.6 ± 0.07 | 
O=C1NC(=O)[C@@H](c2cn3c4c(cccc24)CCC3)[C@@H]1c1c[nH]c2cc(O)ccc12 (racemic) [Compound 1, (rac)-trans-3-(5,6-dihydro-4H-pyrrolo[3,2,1-ij]quinolin-1-yl)-4-(6-hydroxy-1H-indol-3-yl)pyrrolidine-2,5-dione] |  |  | 167 to 170
O=C1NC(=O)[C@@H](c2cn3c4c(cccc24)C(O)CC3)[C@@H]1c1c[nH]c2ccccc12 (mixture of isomers) [Compound 3, (rac)-trans-3-(6-hydroxy-5,6-dihydro-4H-pyrrolo[3,2,1-ij]quinolin-1-yl)-4-(1H-indol-3-yl)pyrrolidine-2,5-dione] |  |  | 153 to 155
O=C1CCn2cc([C@@H]3C(=O)NC(=O)[C@H]3c3c[nH]c4ccccc34)c3cccc1c32 (racemic) [Compound 8, (3R,4R)-3-(1H-indol-3-yl)-4-(6-oxo-5,6-dihydro-4H-pyrrolo[3,2,1-ij]quinolin-1-yl)pyrrolidine-2,5-dione] | 0.68 ± 0.05 | 1.6 ± 0.25 | 
O=C1NC(=O)[C@@H](c2cn3c4c(cccc24)CCC3=O)[C@@H]1c1c[nH]c2ccccc12 (racemic) [Compound 9, (3R,4R)-3-(1H-indol-3-yl)-4-(4-oxo-5,6-dihydro-4H-pyrrolo[3,2,1-ij]quinolin-1-yl)pyrrolidine-2,5-dione] | 3.1 ± 0.24 | 1 | 
O=C1NC(=O)[C@H](c2cn3c4c(cccc24)[C@@H](O)CC3)[C@H]1c1c[nH]c2ccccc12 [Compound 13, (3S,4S)-3-((S)-6-hydroxy-5,6-dihydro-4H-pyrrolo[3,2,1-ij]quinolin-1-yl)-4-(1H-indol-3-yl)pyrrolidine-2,5-dione] | 75 ± 33 | > 30 | 
O=C1NC(=O)[C@@H](c2cn3c4c(cccc24)[C@@H](O)CC3)[C@@H]1c1c[nH]c2ccccc12 [Compound 10, (3R,4R)-3-((S)-6-hydroxy-5,6-dihydro-4H-pyrrolo[3,2,1-ij]quinolin-1-yl)-4-(1H-indol-3-yl)pyrrolidine-2,5-dione] | 1.5 ± 0.21 | 2 ± 0.21 | 
